ChEMBL document CHEMBL1150191, “Isolation of Eupalmerin, a Minor Cembranoid Diterpene from the Caribbean Gorgonian Eunicea mammosa” (J Nat Prod, 1991)
Values after ≈ are worked out from the molar mass of the structure shown.

Assay: Cytotoxicity against CHOK1 cells
Assay type: cell-based, Cricetulus griseus
Details: chinese hamster, CHO-K1 cells; read-out: ED50 (the source's name)

**Q.** For `C=C1C(=O)O[C@H]2[C@H](O)[C@@H](C)CCC/C(C)=C/CC[C@@]3(C)O[C@H]3C[C@@H]12` [EUPALMERIN], which CC50 is on record?
**A.** Its CC50 is 5.46 µg/mL (≈ 16.3 µM).
